Data published in patent US9096543B2, “Nuclear transport modulators and uses thereof” (Karyopharm Therapeutics Inc., priority 2012, dated 2015).
Entries after “also recorded” stand apart in the source; their conditions may differ.

Assays:
[1] = Brain to plasma ratio (B:P) in mice; format: in vivo; conditions: mouse, brain and plasma, 10 mg/kg po, 2 hours post-dose
Description: Brain tissue following collection was rinsed with cold saline, dried on filter paper, weighed and snap-frozen by placing on dry ice. All samples were stored frozen at approximately −80° C. until analysis. […] Plasma samples were treated with the identical method (except homogenization step) and concentration of compound in either matrix was calculated based on the generated standard curves.

[2] = MTT Cell Proliferation Assay (CellTiter 96 AQueous One Solution, MTS); format: cell-based; conditions: human; 72 h treatment; cell line not given; read-out: Cytotoxicity [IC50]
Excerpt: The CellTiter 96® AQueous One Solution cell proliferation assay (Promega) was used on MM1.S, Jurkat and HCT-116 cells to study the cytotoxic and cytostatic properties of the compounds. The assay is based on the cleavage of the tetrazolium salt, MTS, in the presence of an electron-coupling reagent PES (phenazine ethosulfate). The MTS tetrazolium compound is bioreduced by cells into a colored formazan product that is soluble in tissue culture medium. This conversion is presumably accomplished by NADPH or NADH produced by dehydrogenase enzymes in metabolically active cells. Assays are performed by adding a small amount of the CellTiter 96® AQueous One solution reagent directly to culture wells, incubating for 1-4 hours and then recording the absorbance at 490 nm with a 96-well plate reader. […] The cells were seeded at 5×10^3 to 1.5×10^4 cells (depending on cell type) in each well of 96-well plate in 100 μL of fresh culture medium and adherent cells were allowed to attach for overnight. The stock solutions of the compounds were diluted in cell culture medium to obtain eight concentrations of each drug, ranging from 1 nM to 30 μM and DMSO at less than 1% v/v was used as a negative control. After 72 h of treatment 20 μl of CellTiter 96® AQueous reagent was added into each well of the 96-well assay plates and the plate was incubate at 37° C. for 1-4 hours in a humidified, 5% CO2 atmosphere. Then the absorbance of each well was recorded at 490 nm by using a 96-well plate reader. In most cases the assay was performed in triplicates and the results were presented as half maximal inhibitory concentration (IC50) described below. Optical density versus compound concentration was plotted and analyzed using non linear regression equations (Excel Fit) and the IC50 for each compound was calculated.

COX-2 = COX-2 protein expression in HeLa cells (immunoblot); format: cell-based; conditions: 1 μM Compound 1 + 20 ng/ml TNFα, 24 hours
Description: HeLa cells were plated in a 6-well culture dish (5×10^5 cells/well) with EMEM medium (Lonza) supplemented with 10% heat-inactivated fetal bovine serum (Invitrogen). Two of the wells of the plate were pre-treated with 1 μM of Compound 1 for 30 minutes, at which time one of the wells was exposed to 20 ng/ml TNFα (Preprotech) for 24 hours. The other wells were treated with either 20 ng/ml TNFα or nothing for 24 hours. Following the treatment, whole-cell lysates were generated from the cells by lysis with RIPA buffer supplemented with protease and phosphatase inhibitors (Roche). Immunoblot detection of COX-2 protein was performed using an anti-COX-2 antibody (Cayman). Signal intensity for the COX-2 protein was normalized to that of beta-actin (Santa Cruz) for each sample and plotted graphically as arbitrary intensity units.

MOG-induced EAE = assay: MOG-induced experimental autoimmune encephalomyelitis (EAE) murine model; format: in vivo, C57B1/6J mice; conditions: Compound 1 7.5 mg/kg p.o. from day 11, Monday, Wednesday and Friday, 3 weeks
Description: The EAE Model is an accepted model for the study of human CNS demyelinating diseases such as multiple sclerosis. The effects of Compound 1 were investigated in MOG-induced in an EAE murine model in female C57B1/6J mice. […] Compound 1 at 7.5 mg/kg was administered orally starting from day 11 (disease onset) on Monday, Wednesday and Friday for 3 consecutive weeks. The disease was induced by the single intradermal injection of MOG emulsified in Complete Freund's Adjuvant (CFA) on study day 0, followed by intraperitoneal supplemental immunostimulation with pertussis toxin (PT) carried out on study day 0, and again 48 hours later on study day 2.

[3] = Pharmacokinetics (plasma AUC) in mice; format: in vivo; conditions: mouse, 10 mg/kg po
Description: Blood was collected from mice (N=3) to contribute to the total of 10 time points (pre-dose, 5 min, 15 min, 30 min, 1 hour, 2 hours, 4 hours, 8 hours, 12 hours and 24 hours post dose). Mice were bled on a rotating basis, each mouse contributing 3 time points to the blood collection. At the designated time points, animals were anaesthetized under isoflurane, and approximately 110 μL of blood per time point was collected via retro-orbital puncture into pre-cooled K2EDTA (anti-coagulant) tubes. Blood samples were put on wet ice and centrifuged (2000 g, 5 min at 4° C.) to obtain plasma within 30 minutes of sample collection. All samples were stored frozen at approximately −80° C. until analysis. Prior to analysis, samples were mixed with internal standard (dexamethasone) in acetonitrile, vortexed, centrifuged, and supernatant was injected for analysis. Concentration of compounds in plasma was determined using LC-MS-MS instrumentation (API 4000, Triple Quadruple with electrospray ionization; Acuity Ultra Performance Liquid Chromatography column C18, with MeOH and formic acid as organic solvents). PK parameters including but not limited to Tmax, Cmax, t1/2, AUClast, AUCinf were calculated using WinNonlin Professional 6.2 software package, non-compartmental pharmacokinetic model NCA200.

[4] = test system: collagen-induced arthritis; assay: Collagen-induced arthritis (CIA) in Lewis rats; format: in vivo
Description: Forty (40) female Lewis rats (BK), aged 6 to 8 weeks with a pre-treatment body weight range of 180 to 200 g were divided randomly into four (4) groups (Groups A-D) of ten (10) rats each. The rats in Groups B to D were immunized intradermally with bovine CII in IFA at three sites near the base of the tail and over the back with 500 μl, of the emulsion on day 0 (200 μL, 200 μL, 100 μL for each site). On day 7, the rats in Groups B-D were given booster injections with the same amount of the emulsion intradermally near the former injection sites. […] Rats were weighed daily and a drug holiday was given to an animal when a weight loss of greater than 13%. CIA development was evaluated via macroscopic scoring and measurements of paw swelling. […] Foot volume was measured by plethysmometry on the same day of the arthritic measurement throughout the study period. The cubage of each hind paw and swelling rate were measured and using the following equation: Swelling Rate=(CN−C0)/C0×100%. […] The clinical scores were summed for each animal, and the total average of all animals in each group was expressed as the mean arthritic score. […] Prepared sections of hind paws were subjected to hematoxylin and eosin (H&E) staining.

Question: With `CC(C)(C)C(=O)NNC(=O)/C=C\n1cnc(-c2cc(C(F)(F)F)cc(C(F)(F)F)c2)n1` [Compound 1, (Z)-3-(3-(3,5-bis(trifluoromethyl)phenyl)-1H-1,2,4-triazol-1-yl)-N′-pivaloylacrylohydrazide] as the molecule, how does the Kp at 2 h [1] read?
Answer: 2.25

Question: And the IC50 at 72 h [2]?
Answer: < 1000 nM

Question: What about the COX-2 protein expression (COX-2) of the same molecule?
Answer: decreased the amount of COX-2 protein in the presence of TNFα; also recorded: does reduce the amount of TNFα induced expression of COX-2 protein; also recorded: inhibits TNFα-induced COX-2 protein expression

Question: And the “disease score and severity” value (MOG-induced EAE)?
Answer: significantly decreased disease score and severity; also recorded: decrease in disease score and severity

Question: And the AUC(0-inf) [3]?
Answer: 33100 ng·h/mL

Question: Which results are given for `O=C(/C=C\n1cnc(-c2cc(C(F)(F)F)cc(C(F)(F)F)c2)n1)NNC(=O)CN1CCOCC1` [Compound 2, (Z)-3-(3-(3,5-bis(trifluoromethyl)phenyl)-1H-1,2,4-triazol-1-yl)-N′-(2-morpholinoacetyl)acrylohydrazide]?
Answer: Kp at 2 h [1]: 0.16; IC50 at 72 h [2]: < 1000 nM; therapeutic efficacy (Clinical Scores, Joint Swelling, histological examination) ([4]; 4 mg/kg (MPK) PO QoD from onset to day 28): showed the therapeutic efficacy; histopathological analysis of hind paws (H&E) ([4]; day 28, 4 mg/kg PO QoD from onset): relatively intact cartilage was found on the joint surface and pannus formation was minimal; AUC(0-inf) [3]: 28900 ng·h/mL
